The results in this text go back to ChEMBL document CHEMBL1909046, “DrugMatrix in vitro pharmacology data”.

Usually IC50 stands for the point on the concentration scale where inhibition reaches its midpoint. By Ki is commonly meant the dissociation constant of the complex between target and ligand, obtained from inhibition or displacement.

One assay concerns the target Glycine receptor (Rattus norvegicus, UniProt P22771+P24524+P07727+P20781). In kind it is cell membranes, Wistar, Spinal cord, Membrane. Also: in other assays of this panel Not Active means under 50% inhibition at 10 µM.
In a further assay the target is Carbonic anhydrase 2 (Homo sapiens, UniProt P00918). In words: DRUGMATRIX: Carbonic Anhydrase II enzyme inhibition (substrate: 4-Nitrophenyl acetate (4-NPA)). Type of assay: tissue-based. The settings on record: erythrocyte; Not Active = under 50% inhibition at 10 µM.
For the next assay, the target named is T1, Leukotriene C4 synthase (Cavia porcellus, UniProt A6XA80).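 Also: enzyme inhibition assay of leukotriene C4 synthase, using LTA4 as the substrate; in other assays of this panel Not Active means under 50% inhibition at 10 µM.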
T1 sequence (A6XA80 whole entry): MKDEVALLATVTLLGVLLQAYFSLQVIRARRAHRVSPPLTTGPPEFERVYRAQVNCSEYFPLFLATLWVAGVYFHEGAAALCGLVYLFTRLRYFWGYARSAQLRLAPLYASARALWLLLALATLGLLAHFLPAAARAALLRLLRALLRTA
Type of assay: tissue-based, Lung.

The target of a further assay is T2, Interstitial collagenase (Homo sapiens, UniProt P03956).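 Also: MMP-1 enzyme inhibition assay using a peptide substrate; in other assays of this panel Not Active means under 50% inhibition at 10 µM.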
T2 sequence (P03956 whole entry): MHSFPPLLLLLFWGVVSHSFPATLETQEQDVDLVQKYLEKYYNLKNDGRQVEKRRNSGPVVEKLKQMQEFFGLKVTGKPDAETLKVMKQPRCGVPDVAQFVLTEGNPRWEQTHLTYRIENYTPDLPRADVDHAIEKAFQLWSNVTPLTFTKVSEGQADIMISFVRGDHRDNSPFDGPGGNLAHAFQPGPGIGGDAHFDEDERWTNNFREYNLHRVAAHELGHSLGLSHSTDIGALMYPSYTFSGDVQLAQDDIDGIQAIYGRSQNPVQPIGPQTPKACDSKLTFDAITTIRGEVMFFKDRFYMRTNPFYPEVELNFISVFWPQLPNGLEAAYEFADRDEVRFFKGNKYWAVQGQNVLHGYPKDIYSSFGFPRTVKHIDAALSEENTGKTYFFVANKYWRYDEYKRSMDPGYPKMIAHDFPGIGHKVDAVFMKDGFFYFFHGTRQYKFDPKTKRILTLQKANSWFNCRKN
In words: biochemical. Type of assay: tissue-based, Rheumatoid synovial fibroblasts.

The target in assay [1] is Mitogen-activated protein kinase 3 (Homo sapiens, UniProt P27361). In words: DRUGMATRIX: Protein Serine/Threonine Kinase, ERK1 enzyme inhibition (substrate: Myelin Basic Protein). Particulars: Not Active = under 50% inhibition at 10 µM. Details: species or system Escherichia coli.
Chain of Mitogen-activated protein kinase 3 (P27361 whole entry): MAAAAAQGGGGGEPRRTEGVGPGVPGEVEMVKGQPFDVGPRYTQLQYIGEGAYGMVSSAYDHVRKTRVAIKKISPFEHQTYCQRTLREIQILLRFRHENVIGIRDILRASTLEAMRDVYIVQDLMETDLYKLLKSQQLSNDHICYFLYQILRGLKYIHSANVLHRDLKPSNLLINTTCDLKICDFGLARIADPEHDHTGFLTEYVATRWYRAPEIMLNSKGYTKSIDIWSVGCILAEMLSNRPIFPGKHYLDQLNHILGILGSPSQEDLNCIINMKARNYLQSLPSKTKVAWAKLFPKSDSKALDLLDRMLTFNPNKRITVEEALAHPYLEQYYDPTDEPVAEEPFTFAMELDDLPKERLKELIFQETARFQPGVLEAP
The target of the next assay is T3, Progesterone receptor (Bos taurus, UniProt Q690N0).
T3 sequence (Q690N0 whole entry): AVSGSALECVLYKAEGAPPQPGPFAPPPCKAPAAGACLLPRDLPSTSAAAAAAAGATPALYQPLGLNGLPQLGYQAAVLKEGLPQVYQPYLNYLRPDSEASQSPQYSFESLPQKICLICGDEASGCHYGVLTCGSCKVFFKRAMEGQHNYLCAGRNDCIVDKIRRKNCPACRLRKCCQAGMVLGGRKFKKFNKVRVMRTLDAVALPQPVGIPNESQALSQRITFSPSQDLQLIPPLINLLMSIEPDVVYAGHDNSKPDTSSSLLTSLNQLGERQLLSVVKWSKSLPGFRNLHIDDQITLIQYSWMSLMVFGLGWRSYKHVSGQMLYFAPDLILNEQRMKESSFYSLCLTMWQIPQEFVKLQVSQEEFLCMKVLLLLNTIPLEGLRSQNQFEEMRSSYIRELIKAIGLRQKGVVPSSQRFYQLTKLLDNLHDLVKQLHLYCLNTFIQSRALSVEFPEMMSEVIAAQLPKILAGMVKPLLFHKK
In words: DRUGMATRIX: Progesterone radioligand binding (ligand: [3H] R-5020). In kind it is tissue-based, Uterus. Particulars: Not Active = under 50% inhibition at 10 µM; for Ki: read-out: Ki.

In assay [2] the target is cGMP-specific 3',5'-cyclic phosphodiesterase (Homo sapiens, UniProt O76074). In words: DRUGMATRIX: Phosphodiesterase PDE5 enzyme inhibition (substrate: [3H]cGMP + cGMP). In kind it is tissue-based, Platelet. Particulars: platelet; Not Active = under 50% inhibition at 10 µM.

On to `C[C@@H]1CC[C@@]2(OC1)O[C@H]1[C@@H](O)[C@H]3[C@@H]4CC[C@H]5C[C@@H](O[C@@H]6O[C@H](CO)[C@H](O[C@@H]7O[C@H](CO)C(O)[C@H](O[C@@H]8OC[C@@H](O)[C@H](O)[C@H]8O)[C@H]7O[C@@H]7O[C@H](CO)[C@H](O)[C@H](O[C@@H]8O[C@H](CO)[C@@H](O)[C@H](O)[C@H]8O)[C@H]7O)[C@H](O)[C@H]6O)[C@H](O)C[C@]5(C)[C@H]4CC[C@]3(C)[C@H]1[C@@H]2C` (some centres not stated) [DIGITONIN], for which the IC50 result (on Glycine receptor; against Carbonic anhydrase 2; against Leukotriene C4 synthase; on Interstitial collagenase; in assay [1]; on Progesterone receptor) was “Not Active” in each case. In addition, in assay [2], the IC50 result is given as “Not Active”.
Consider `OC(CCCN1CCCCC1)(c1ccccc1)c1ccccc1` [DIPHENIDOL], for which the IC50 result (on Glycine receptor; on Carbonic anhydrase 2; against Leukotriene C4 synthase; on Interstitial collagenase; in assay [1]; at Progesterone receptor) was “Not Active” throughout. The IC50 result in assay [2] is “Not Active”.
Regarding `C[C@H]1O[C@@H](n2cc(F)c(=O)[nH]c2=O)[C@H](O)[C@@H]1O` [DOXIFLURIDINE], the IC50 result (against Glycine receptor; on Carbonic anhydrase 2; at Leukotriene C4 synthase; against Interstitial collagenase; in assay [1]; on Progesterone receptor) was “Not Active” in each case. For the same molecule, the half-inhibitory concentration (IC50) entry in assay [2] was “Not Active”.
Consider `Cn1c(=O)c2c(ncn2CC(O)CO)n(C)c1=O` (configuration not stated) [DYPHYLLINE], for which the IC50 result (at Glycine receptor; against Carbonic anhydrase 2; on Leukotriene C4 synthase; against Interstitial collagenase; in assay [1]; on Progesterone receptor) was “Not Active” each time. Further, in assay [2], the IC50 entry is given as “Not Active”.
For `CC[C@H]1CN2CCc3cc(OC)c(OC)cc3[C@@H]2C[C@@H]1C[C@H]1NCCc2cc(OC)c(OC)cc21` [EMETINE], the IC50 entry (against Glycine receptor; against Carbonic anhydrase 2; against Leukotriene C4 synthase; at Interstitial collagenase; in assay [1]; at Progesterone receptor) was “Not Active” in each case. The half-maximal inhibitory concentration (IC50) result in assay [2] is reported as “Not Active”.
As to `C[C@@H](CO)NC(=O)[C@@H]1C=C2c3cccc4[nH]cc(c34)C[C@H]2N(C)C1` [ERGONOVINE], the IC50 result (against Glycine receptor; against Carbonic anhydrase 2; on Leukotriene C4 synthase; at Interstitial collagenase; in assay [1]; on Progesterone receptor) was “Not Active” throughout. Further, the IC50 result in assay [2] is on record as “Not Active”.
As to `COC(=O)CCc1ccc(OCC(O)CNC(C)C)cc1` (configuration not stated) [ESMOLOL], the IC50 entry (on Glycine receptor; against Carbonic anhydrase 2; on Leukotriene C4 synthase; at Interstitial collagenase; in assay [1]; on Progesterone receptor) was “Not Active” in each case. Besides, the IC50 entry in assay [2] is recorded as “Not Active”.
For `CCC1(C)CC(=O)NC1=O` (configuration not stated) [ETHOSUXIMIDE], the IC50 entry (at Glycine receptor; against Carbonic anhydrase 2; against Leukotriene C4 synthase; against Interstitial collagenase; in assay [1]; at Progesterone receptor) was “Not Active” each time. The IC50 entry in assay [2] is given as “Not Active”.
Turning to `C#C[C@]1(OC(C)=O)CC[C@H]2[C@@H]3CCC4=C[C@@H](OC(C)=O)CC[C@@H]4[C@H]3CC[C@@]21C` [ETHYNODIOL DIACETATE], the IC50 result is “Not Active” against Glycine receptor; “Not Active” against Carbonic anhydrase 2; “Not Active” against Leukotriene C4 synthase; “Not Active” at Interstitial collagenase; “Not Active” in assay [1]; 160 nM on Progesterone receptor (read-out: IC50). In addition, the IC50 entry in assay [2] is listed as “Not Active”. The Ki at Progesterone receptor was determined as 21 nM.
In the case of `COc1cc([C@@H]2c3cc4c(cc3[C@@H](O[C@@H]3O[C@@H]5CO[C@@H](C)O[C@H]5[C@H](O)[C@H]3O)[C@H]3COC(=O)[C@H]23)OCO4)cc(OC)c1O` [ETOPOSIDE], the IC50 entry (at Glycine receptor; against Carbonic anhydrase 2; against Leukotriene C4 synthase; against Interstitial collagenase; in assay [1]; at Progesterone receptor) was “Not Active” in each case. In addition, the IC50 entry in assay [2] is on record as “Not Active”.
In the case of `C=CCc1ccc(O)c(OC)c1` [EUGENOL], the IC50 entry (on Glycine receptor; against Carbonic anhydrase 2; against Leukotriene C4 synthase; on Interstitial collagenase; in assay [1]; at Progesterone receptor) was “Not Active” throughout. The IC50 result in assay [2] is given as “Not Active”.
`CC(C(=O)O)c1cccc(Oc2ccccc2)c1` (configuration not stated) [FENOPROFEN]: the IC50 result (at Glycine receptor; against Carbonic anhydrase 2; at Leukotriene C4 synthase; against Interstitial collagenase; in assay [1]; on Progesterone receptor) was “Not Active” each time. The IC50 result in assay [2] is listed as “Not Active”.
For the molecule `CC(C)(C)NC(=O)[C@H]1CC[C@H]2[C@@H]3CC[C@H]4NC(=O)C=C[C@]4(C)[C@H]3CC[C@]12C` [FINASTERIDE], the IC50 entry (on Glycine receptor; against Carbonic anhydrase 2; at Leukotriene C4 synthase; on Interstitial collagenase; in assay [1]; at Progesterone receptor) was “Not Active” each time. Also, the IC50 entry in assay [2] is reported as “Not Active”.
As for `COc1ccc2c3c1O[C@H]1C[C@@H](O)C=C[C@@]31CCN(C)C2` [GALANTAMINE], the IC50 result (against Glycine receptor; against Carbonic anhydrase 2; at Leukotriene C4 synthase; against Interstitial collagenase; in assay [1]; on Progesterone receptor) was “Not Active” each time. In addition, the IC50 entry in assay [2] is reported as “Not Active”.
In the case of `Nc1ccn([C@@H]2O[C@H](CO)[C@@H](O)C2(F)F)c(=O)n1` [GEMCITABINE], the IC50 result (against Glycine receptor; against Carbonic anhydrase 2; against Leukotriene C4 synthase; at Interstitial collagenase; in assay [1]; at Progesterone receptor) was “Not Active” throughout. In addition, the IC50 entry in assay [2] is recorded as “Not Active”.
Consider `CC(C)=CCC/C(C)=C/CO` [GERANIOL], for which the IC50 entry (at Glycine receptor; on Carbonic anhydrase 2; against Leukotriene C4 synthase; against Interstitial collagenase; in assay [1]; on Progesterone receptor) was “Not Active” throughout. The IC50 entry in assay [2] is given as “Not Active”.
For the molecule `N=C(N)NC(=O)Cc1c(Cl)cccc1Cl` [GUANFACINE], the IC50 entry (against Glycine receptor; on Carbonic anhydrase 2; against Leukotriene C4 synthase; against Interstitial collagenase; in assay [1]; at Progesterone receptor) was “Not Active” in each case. The IC50 entry in assay [2] is “Not Active”.
In the case of `Oc1c(Cl)cc(Cl)c(Cl)c1Cc1c(O)c(Cl)cc(Cl)c1Cl` [HEXACHLOROPHENE], the IC50 result is “Not Active” at Glycine receptor; “Not Active” against Carbonic anhydrase 2; “Not Active” on Leukotriene C4 synthase; “Not Active” on Interstitial collagenase; 2480 nM in assay [1] (read-out: IC50); “Not Active” on Progesterone receptor. Further, in assay [2], the IC50 result is recorded as “Not Active”.
In the case of `NNc1nncc2ccccc12` [HYDRALAZINE], the concentration for half-maximal inhibition (IC50) entry (on Glycine receptor; against Carbonic anhydrase 2; against Leukotriene C4 synthase; against Interstitial collagenase; in assay [1]; on Progesterone receptor) was “Not Active” each time. Also, the IC50 entry in assay [2] is given as “Not Active”.
On to `CC(=O)[C@@]1(O)CC[C@H]2[C@@H]3CCC4=CC(=O)CC[C@]4(C)[C@H]3CC[C@@]21C` [HYDROXYPROGESTERONE], for which the half-maximal inhibitory concentration (IC50) result is “Not Active” against Glycine receptor; “Not Active” at Carbonic anhydrase 2; “Not Active” at Leukotriene C4 synthase; “Not Active” against Interstitial collagenase; 3160 nM in assay [1] (read-out: IC50); 12 nM at Progesterone receptor (read-out: IC50). In addition, the IC50 result in assay [2] is given as “Not Active”. Further, the inhibitory constant (Ki) on Progesterone receptor is 1.55 nM.
